The source of these data is ChEMBL document CHEMBL4811298, “Discovery of novel class of histone deacetylase inhibitors as potential anticancer agents” (Bioorg Med Chem, 2021).

Data set [1] relates to MCF7. The data set is described as follows: Induction of apoptosis in human MCF7 cells assessed as downregulation of c-Myc gene expression at 1 uM measured after 24 hrs whole transcriptome analysis. Type of data set: functional, cell-based.
A short description of data set [2]: Kinetic aqueous solubility of the compound in 2% DMSO/phosphate buffered saline at 200 uM incubated for 90 mins by UV absorbance based analysis. The following applies: read-out: Kinetic_solubility. Type of data set: physicochemical.
Data set [3] can be described thus: Metabolic stability of the compound in human liver microsomes assessed as parent compound remaining at 1 uM measured after 60 mins in absence of NADPH by LC-MS/MS analysis. Conditions: read-out: Stabilty. The format is ADME, Microsome. (In general: Microsomes from liver hold many membrane-bound enzymes, among them those of drug oxidation.)
The nature of data set [4]: Metabolic stability of the compound in CD-1 mouse liver microsomes assessed as parent compound remaining at 1 uM measured after 60 mins in absence of NADPH by LC-MS/MS analysis. The format is ADME, Microsome. The following applies: read-out: Stabilty.
Another data set addresses Cytochrome P450 2C9 (Homo sapiens, UniProt P11712). Nature of the data set: Inhibition of human CYP2C9-1 expressed in insect supersomes assessed as reduction in HFC formation using MFC as substrate measured after 30 mins in presence of NADPH by fluorescence based analysis. The format is ADME.
In another data set the target is Histone deacetylase 1 (Homo sapiens, UniProt Q13547). Nature of the data set: Inhibition of C-terminal FLAG/His-tagged human recombinant HDAC1 (1 to 482 residues) expressed in baculovirus-infected Sf9 cells assessed as reduction in 7-amino-4-methylcoumarin release using fluorogenic HDAC substrate 3 measured every 5 mins by fluorescence based analysis.
Histone deacetylase 1, sequence (Q13547 whole entry, the tested form may be a part): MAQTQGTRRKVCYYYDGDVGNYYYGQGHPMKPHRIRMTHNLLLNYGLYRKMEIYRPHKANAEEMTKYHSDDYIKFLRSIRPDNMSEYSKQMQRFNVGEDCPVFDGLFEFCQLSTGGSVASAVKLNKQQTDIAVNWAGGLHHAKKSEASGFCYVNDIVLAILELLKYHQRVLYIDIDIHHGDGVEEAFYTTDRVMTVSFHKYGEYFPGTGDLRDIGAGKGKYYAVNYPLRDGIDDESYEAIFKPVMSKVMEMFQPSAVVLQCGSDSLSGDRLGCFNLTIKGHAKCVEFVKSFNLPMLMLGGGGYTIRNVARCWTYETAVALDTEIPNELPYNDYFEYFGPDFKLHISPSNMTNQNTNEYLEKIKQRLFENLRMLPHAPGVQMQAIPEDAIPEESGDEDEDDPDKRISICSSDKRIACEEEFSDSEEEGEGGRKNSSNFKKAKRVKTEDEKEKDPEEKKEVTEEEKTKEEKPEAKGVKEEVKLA
Another data set deals with Histone deacetylase 2 (Homo sapiens, UniProt Q92769). Type of data set: cell-based, Sf9.
Histone deacetylase 2, sequence (Q92769 whole entry, the tested form may be a part): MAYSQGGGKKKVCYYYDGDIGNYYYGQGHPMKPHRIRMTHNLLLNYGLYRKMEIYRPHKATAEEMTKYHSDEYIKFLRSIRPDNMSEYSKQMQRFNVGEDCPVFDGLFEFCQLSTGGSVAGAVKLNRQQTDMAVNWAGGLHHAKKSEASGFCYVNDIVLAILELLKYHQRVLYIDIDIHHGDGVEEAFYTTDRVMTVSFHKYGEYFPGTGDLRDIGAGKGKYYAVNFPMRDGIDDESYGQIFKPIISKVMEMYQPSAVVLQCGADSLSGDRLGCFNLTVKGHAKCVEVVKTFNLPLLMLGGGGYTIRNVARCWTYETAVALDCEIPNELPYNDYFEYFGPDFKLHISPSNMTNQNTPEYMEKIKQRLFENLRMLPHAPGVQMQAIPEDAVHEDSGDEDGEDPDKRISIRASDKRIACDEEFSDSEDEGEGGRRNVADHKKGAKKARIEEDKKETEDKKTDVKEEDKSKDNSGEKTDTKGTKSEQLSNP
The next data set has as its target Histone deacetylase 4 (Homo sapiens, UniProt P56524). The data set is described as follows: Inhibition of N-terminal GST-tagged/C-terminal His-tagged human recombinant HDAC4 (627 to 1084 residues) expressed in baculovirus-infected Sf9 cells assessed as reduction in 7-amino-4-methylcoumarin release measured every 5 mins by fluorescence based analysis.
In another data set the target is T1, Histone deacetylase 7 (Homo sapiens, UniProt Q8WUI4).
T1 sequence (Q8WUI4 whole entry): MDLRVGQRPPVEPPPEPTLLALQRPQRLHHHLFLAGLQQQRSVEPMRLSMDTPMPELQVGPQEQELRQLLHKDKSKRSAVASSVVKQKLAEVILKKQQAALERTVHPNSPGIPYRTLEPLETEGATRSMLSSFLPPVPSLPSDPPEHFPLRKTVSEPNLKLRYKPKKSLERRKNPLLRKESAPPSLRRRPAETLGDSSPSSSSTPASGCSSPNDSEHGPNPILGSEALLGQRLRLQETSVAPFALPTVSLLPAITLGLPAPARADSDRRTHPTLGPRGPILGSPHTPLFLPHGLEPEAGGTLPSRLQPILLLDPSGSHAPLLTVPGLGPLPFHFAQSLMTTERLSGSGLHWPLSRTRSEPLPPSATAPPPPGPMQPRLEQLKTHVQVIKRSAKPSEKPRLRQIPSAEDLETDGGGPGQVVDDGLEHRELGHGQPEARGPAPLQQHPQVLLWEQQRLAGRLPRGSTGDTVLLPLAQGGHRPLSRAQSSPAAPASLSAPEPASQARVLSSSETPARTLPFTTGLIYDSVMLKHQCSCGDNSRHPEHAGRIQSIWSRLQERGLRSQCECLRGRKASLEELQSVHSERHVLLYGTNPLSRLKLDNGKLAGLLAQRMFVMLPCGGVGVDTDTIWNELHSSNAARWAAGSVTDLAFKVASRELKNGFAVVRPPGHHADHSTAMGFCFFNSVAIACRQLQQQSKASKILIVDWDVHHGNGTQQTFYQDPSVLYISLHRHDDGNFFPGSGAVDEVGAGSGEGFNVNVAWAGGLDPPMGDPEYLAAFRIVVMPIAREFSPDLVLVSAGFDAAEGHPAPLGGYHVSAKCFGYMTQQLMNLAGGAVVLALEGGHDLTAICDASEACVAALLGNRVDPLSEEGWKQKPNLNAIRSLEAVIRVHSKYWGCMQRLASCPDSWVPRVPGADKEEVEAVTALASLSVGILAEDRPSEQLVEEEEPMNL
The data set is described as follows: Inhibition of N-terminal GST-tagged human HDAC7 (518 to end residues) expressed in baculovirus-infected Sf9 cells assessed as reduction in 7-amino-4-methylcoumarin release measured every 5 mins by fluorescence based analysis.

Data set [5] is described as follows: Downregulation of HDAC3 gene expression in human MCF7 cells at 3 uM incubated for 24 hrs by whole transcriptome analysis relative to control. The format is functional.
The subject of data set [6] is MCF7. The data set is described as follows: Antiproliferative activity against human MCF7 cells assessed as reduction in cell viability incubated for 48 hrs by SRB assay. Type of data set: functional, cell-based. The following applies: MCF7, 48 h. In general terms: Sulforhodamine B stains cellular protein and so reports cell mass.
The next data set relates to A549. Nature of the data set: Antiproliferative activity against human A549 cells assessed as reduction in cell viability incubated for 48 hrs by SRB assay. Type of data set: functional, cell-based. The following applies: A549, 48 h.
The subject of data set [7] is MCF7. The data set is described as follows: Induction of apoptosis in human MCF7 cells assessed as downregulation of c-Myc protein expression at 1 to 3 uM measured after 48 hrs western blot analysis. Type of data set: functional, cell-based. Conditions: dose 1-3 µM.
The test system of data set [8] is MCF7. The data set is described as follows: Induction of apoptosis in human MCF7 cells assessed as increase in caspase 3/7 activity at 1 to 3 uM measured after 48 hrs by ELISA. The following applies: dose 1-3 µM. Type of data set: functional, cell-based. On the technique in general: In an ELISA, binding on a coated surface is turned into a signal by an enzyme label.

In data set [9] the test system is MCF7. Nature of the data set: Induction of apoptosis in human MCF7 cells assessed as reduction in Bcl3 gene expression at 3 uM incubated for 24 hrs by whole transcriptome analysis. The format is functional, cell-based.
For data set [10], the target named is Histone deacetylase (Homo sapiens) (UniProt Q13547+O15379+Q9UBN7+Q92769+Q9UQL6+Q8WUI4+Q9BY41+Q96DB2+P56524+Q9UKV0+Q969S8). The data set is described as follows: Inhibition of HDAC in human MCF7 cells assessed as increase in acetylated histone H4 mRNA level at 3 uM incubated for 24 hrs by whole transcriptome analysis. The format is cell-based.
Data set [11] has as its system MCF7. The data set is described as follows: Downregulation of NFkB2 gene expression in human MCF7 cells at 3 uM incubated for 24 hrs by whole transcriptome analysis. Type of data set: functional, cell-based.
The subject of data set [12] is MCF7. The data set is described as follows: Induction of cell cycle arrest in human MCF7 cells assessed downregulation of CDK1 gene expression at 3 uM incubated for 24 hrs by whole transcriptome analysis. Type of data set: functional, cell-based.
The test system of data set [13] is MCF7. The data set is described as follows: Induction of cell cycle arrest in human MCF7 cells assessed downregulation of RB1 gene expression at 3 uM incubated for 24 hrs by whole transcriptome analysis. The format is functional, cell-based.
The species entered for data set [14] is Homo sapiens. Nature of the data set: Selectivity ratio of IC50 for inhibition of C-terminal His-tagged human recombinant full length HDAC3 (1 to 428 residues)/N-terminal GST-tagged human recombinant NCOR2 (395 to 489 residues) expressed in baculovirus-infected Sf9 cells to IC50 for inhibition of C-terminal FLAG/His-tagged human recombinant HDAC1 (1 to 482 residues) expressed in baculovirus-infected Sf9 cells.

Data set [15] is filed under the species Homo sapiens. The data set is described as follows: Selectivity ratio of IC50 for inhibition of N-terminal GST-tagged human recombinant full length HDAC5 expressed in baculovirus-infected Sf9 cells to IC50 for inhibition of C-terminal 6XHis-tagged human recombinant full length HDAC2 (1 to 488 residues) expressed in baculovirus-infected Sf9 cells.
The species entered for data set [16] is Homo sapiens. Nature of the data set: Selectivity ratio of IC50 for inhibition of C-terminal His-tagged human HDAC9 (604 to 1066 residues) expressed in baculovirus-infected Sf9 cells to IC50 for inhibition of C-terminal 6XHis-tagged human recombinant full length HDAC2 (1 to 488 residues) expressed in baculovirus-infected Sf9 cells.

≈ marks a conversion by molar mass, not a printed value. Calls of active or inactive are those of the source. No cut-off for these calls is given here.

Cytochrome P450 2C9, sequence (P11712 whole entry, the tested form may be a part): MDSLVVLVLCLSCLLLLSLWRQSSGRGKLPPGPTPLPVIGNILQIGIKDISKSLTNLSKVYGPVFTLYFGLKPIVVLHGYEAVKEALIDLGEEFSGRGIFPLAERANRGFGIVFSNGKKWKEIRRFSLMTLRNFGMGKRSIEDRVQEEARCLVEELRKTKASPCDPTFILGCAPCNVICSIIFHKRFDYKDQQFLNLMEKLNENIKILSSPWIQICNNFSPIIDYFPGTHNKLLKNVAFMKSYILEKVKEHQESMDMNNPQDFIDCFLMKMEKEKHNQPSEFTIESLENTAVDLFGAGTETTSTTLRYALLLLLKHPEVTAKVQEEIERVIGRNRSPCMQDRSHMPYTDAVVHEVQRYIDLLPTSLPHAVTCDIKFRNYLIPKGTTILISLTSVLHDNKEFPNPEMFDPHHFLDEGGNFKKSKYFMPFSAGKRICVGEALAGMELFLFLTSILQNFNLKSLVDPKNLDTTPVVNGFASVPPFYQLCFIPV
Histone deacetylase 4, sequence (P56524 whole entry, the tested form may be a part): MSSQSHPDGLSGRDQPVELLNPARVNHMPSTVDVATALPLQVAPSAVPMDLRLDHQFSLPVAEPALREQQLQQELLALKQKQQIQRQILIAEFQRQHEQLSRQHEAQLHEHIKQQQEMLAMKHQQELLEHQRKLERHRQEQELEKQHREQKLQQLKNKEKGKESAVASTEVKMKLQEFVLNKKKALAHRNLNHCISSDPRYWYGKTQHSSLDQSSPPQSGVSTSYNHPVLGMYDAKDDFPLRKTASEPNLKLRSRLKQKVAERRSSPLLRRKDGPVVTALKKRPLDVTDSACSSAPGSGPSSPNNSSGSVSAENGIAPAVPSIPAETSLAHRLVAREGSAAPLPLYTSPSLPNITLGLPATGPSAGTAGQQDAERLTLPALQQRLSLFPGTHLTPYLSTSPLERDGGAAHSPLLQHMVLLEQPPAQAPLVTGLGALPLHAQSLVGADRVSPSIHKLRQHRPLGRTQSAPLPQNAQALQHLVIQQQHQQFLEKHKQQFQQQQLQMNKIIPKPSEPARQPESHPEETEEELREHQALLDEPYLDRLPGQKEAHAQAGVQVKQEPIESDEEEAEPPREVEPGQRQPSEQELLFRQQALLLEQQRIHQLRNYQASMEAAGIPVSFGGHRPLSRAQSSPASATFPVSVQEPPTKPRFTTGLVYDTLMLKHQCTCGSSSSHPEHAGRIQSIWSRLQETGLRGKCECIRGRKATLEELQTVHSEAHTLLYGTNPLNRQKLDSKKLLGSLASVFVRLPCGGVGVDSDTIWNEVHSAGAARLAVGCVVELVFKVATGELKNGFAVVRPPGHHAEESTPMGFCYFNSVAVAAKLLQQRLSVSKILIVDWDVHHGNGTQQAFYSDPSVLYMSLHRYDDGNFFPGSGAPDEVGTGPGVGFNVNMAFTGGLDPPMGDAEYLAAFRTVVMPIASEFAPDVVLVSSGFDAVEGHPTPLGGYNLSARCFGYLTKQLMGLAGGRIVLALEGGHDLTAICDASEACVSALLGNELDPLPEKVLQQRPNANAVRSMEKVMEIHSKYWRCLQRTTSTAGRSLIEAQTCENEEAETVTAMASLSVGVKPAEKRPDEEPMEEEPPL

For `N=C(NO)c1ccc2nc(-c3cccc(-c4cn5ccccc5n4)c3)[nH]c2c1`, the result in the data set on MCF7 [1], in the data set on MCF7 [7], in the data set on MCF7 [8], with MCF7 [9], in the data set with MCF7 [12] and in the data set with MCF7 [13] was Active. In [2], the solubility kinetic at 1.5 h, 200 µM is 36.1 µM (≈ 13.3 µg/mL). The remaining at 1 h, 1 µM in data set [3] came to 99%; in data set [4], 94%. In addition, the IC50 is more than 10000 nM at Cytochrome P450 2C9; 550 nM at Histone deacetylase 1; 400 nM on Histone deacetylase 2; more than 10000 nM at Histone deacetylase 4; more than 10000 nM at Histone deacetylase 7; 2000 nM with MCF7 [6]. Moreover, the 50% inhibitory concentration (IC50) in the data set on A549 worked out at 200 nM. Further, the “fold change (FC)” value in [5] worked out at 2.2. Besides, the inhibition result (in [10]; in the data set on MCF7 [11]) was “Active” in each case. The Ratio IC50 in the data set filed under Homo sapiens [14], in the data set filed under Homo sapiens [15] and in the data set filed under Homo sapiens [16] was more than 44 throughout.

By IC50 is commonly meant the concentration that inhibits the measured activity by half.
